In ChEMBL document CHEMBL2203195, “Synthesis and antibacterial activity of new fluoroquinolones containing a cis- or trans-cyclohexane moiety” (2012):
≈ marks a conversion by molar mass, not a printed value.

Assays:
Type in all cases: functional
Pseudomonas aeruginosa = assay: Antibacterial activity against Pseudomonas aeruginosa CMCC 10104 after 24 hrs by agar dilution method; conditions: CMCC 10104, 24 h
Escherichia coli = assay: Antibacterial activity against Escherichia coli CMCC 44103 after 24 hrs by agar dilution method; conditions: CMCC 44103, 24 h
Staphylococcus aureus = assay: Antibacterial activity against Staphylococcus aureus CMCC 26003 after 24 hrs by agar dilution method; conditions: CMCC 26003, 24 h

SMILES | MIC (Pseudomonas aeruginosa) | MIC (Escherichia coli) | MIC (Staphylococcus aureus)
C[C@H]1COc2c(NC(=O)[C@H]3CC[C@H](COc4ccccc4)CC3)c(F)cc3c(=O)c(C(=O)O)cn1c23 | > 32 mg/L | 16 mg/L (≈ 32.4 µM) | > 32 mg/L
C[C@H]1COc2c(NC(=O)[C@H]3CC[C@H](COc4ccc([N+](=O)[O-])cc4)CC3)c(F)cc3c(=O)c(C(=O)O)cn1c23 | > 32 mg/L | > 32 mg/L | > 32 mg/L
C[C@H]1COc2c(NC(=O)[C@H]3CC[C@@H](COc4ccccc4)CC3)c(F)cc3c(=O)c(C(=O)O)cn1c23 | > 32 mg/L | 8 mg/L (≈ 16.2 µM) | > 32 mg/L
C[C@H]1COc2c(NC(=O)[C@H]3CC[C@@H](COc4ccc([N+](=O)[O-])cc4)CC3)c(F)cc3c(=O)c(C(=O)O)cn1c23 | > 32 mg/L | > 32 mg/L | > 32 mg/L
COc1c(NC(=O)[C@H]2CC[C@H](COc3ccccc3)CC2)c(F)cc2c(=O)c(C(=O)O)cn(C3CC3)c12 | > 32 mg/L | > 32 mg/L | > 32 mg/L
COc1c(NC(=O)[C@H]2CC[C@H](COc3c(C)cccc3C)CC2)c(F)cc2c(=O)c(C(=O)O)cn(C3CC3)c12 | > 32 mg/L | > 32 mg/L | > 32 mg/L
COc1c(NC(=O)[C@H]2CC[C@H](COc3ccc([N+](=O)[O-])cc3)CC2)c(F)cc2c(=O)c(C(=O)O)cn(C3CC3)c12 | > 32 mg/L | > 32 mg/L | > 32 mg/L
COc1c(NC(=O)[C@H]2CC[C@@H](COc3ccccc3)CC2)c(F)cc2c(=O)c(C(=O)O)cn(C3CC3)c12 | > 32 mg/L | > 32 mg/L | 4 mg/L (≈ 7.87 µM)
COc1c(NC(=O)[C@H]2CC[C@@H](COc3ccc([N+](=O)[O-])cc3)CC2)c(F)cc2c(=O)c(C(=O)O)cn(C3CC3)c12 | 2 mg/L (≈ 3.61 µM) | 0.25 mg/L (≈ 0.452 µM) | 1 mg/L (≈ 1.81 µM)
CCn1cc(C(=O)O)c(=O)c2cc(F)c(N3CCNC(C)C3)c(F)c21 (stereo not given) [LOMEFLOXACIN] | 8 mg/L (≈ 22.8 µM) | 2 mg/L (≈ 5.69 µM) | 4 mg/L (≈ 11.4 µM)

Continued, values first:

MIC (Pseudomonas aeruginosa) | MIC (Escherichia coli) | MIC (Staphylococcus aureus) | SMILES
> 32 mg/L | > 32 mg/L | > 32 mg/L | Cc1cccc(C)c1OC[C@H]1CC[C@H](C(=O)Nc2c(F)cc3c(=O)c(C(=O)O)cn4c3c2OC[C@@H]4C)CC1
> 32 mg/L | > 32 mg/L | 32 mg/L (≈ 60.3 µM) | C[C@H]1COc2c(NC(=O)[C@H]3CC[C@H](COc4cccc(F)c4F)CC3)c(F)cc3c(=O)c(C(=O)O)cn1c23
> 32 mg/L | > 32 mg/L | > 32 mg/L | Cc1cccc(C)c1OC[C@H]1CC[C@@H](C(=O)Nc2c(F)cc3c(=O)c(C(=O)O)cn4c3c2OC[C@@H]4C)CC1
1 mg/L (≈ 1.89 µM) | > 32 mg/L | 2 mg/L (≈ 3.77 µM) | C[C@H]1COc2c(NC(=O)[C@H]3CC[C@@H](COc4cccc(F)c4F)CC3)c(F)cc3c(=O)c(C(=O)O)cn1c23
> 32 mg/L | > 32 mg/L | > 32 mg/L | COc1c(NC(=O)[C@H]2CC[C@H](COc3cccc(F)c3F)CC2)c(F)cc2c(=O)c(C(=O)O)cn(C3CC3)c12
> 32 mg/L | > 32 mg/L | > 32 mg/L | COc1c(NC(=O)[C@H]2CC[C@@H](COc3c(C)cccc3C)CC2)c(F)cc2c(=O)c(C(=O)O)cn(C3CC3)c12
> 32 mg/L | > 32 mg/L | > 32 mg/L | COc1c(NC(=O)[C@H]2CC[C@@H](COc3cccc(F)c3F)CC2)c(F)cc2c(=O)c(C(=O)O)cn(C3CC3)c12
> 32 mg/L | > 32 mg/L | > 32 mg/L | CCn1cc(C(=O)O)c(=O)c2cc(F)c(NC(=O)[C@H]3CC[C@H](COc4ccccc4)CC3)c(F)c21
> 32 mg/L | > 32 mg/L | > 32 mg/L | CCn1cc(C(=O)O)c(=O)c2cc(F)c(NC(=O)[C@H]3CC[C@H](COc4cccc(F)c4F)CC3)c(F)c21
> 32 mg/L | > 32 mg/L | > 32 mg/L | CCn1cc(C(=O)O)c(=O)c2cc(F)c(NC(=O)[C@H]3CC[C@H](COc4ccc([N+](=O)[O-])cc4)CC3)c(F)c21
> 32 mg/L | > 32 mg/L | > 32 mg/L | CCn1cc(C(=O)O)c(=O)c2cc(F)c(NC(=O)[C@H]3CC[C@@H](COc4ccccc4)CC3)c(F)c21
> 32 mg/L | > 32 mg/L | > 32 mg/L | CCn1cc(C(=O)O)c(=O)c2cc(F)c(NC(=O)[C@H]3CC[C@@H](COc4c(C)cccc4C)CC3)c(F)c21
> 32 mg/L | > 32 mg/L | > 32 mg/L | CCn1cc(C(=O)O)c(=O)c2cc(F)c(NC(=O)[C@H]3CC[C@@H](COc4cccc(F)c4F)CC3)c(F)c21
> 32 mg/L | > 32 mg/L | 4 mg/L (≈ 7.55 µM) | CCn1cc(C(=O)O)c(=O)c2cc(F)c(NC(=O)[C@H]3CC[C@@H](COc4ccc([N+](=O)[O-])cc4)CC3)c(F)c21
> 32 mg/L | > 32 mg/L | > 32 mg/L | CCn1cc(C(=O)O)c(=O)c2cc(F)c(NC(=O)[C@H]3CC[C@H](COc4c(C)cccc4C)CC3)c(F)c21
